Source: PMC3994062, “Inhibition of Paracoccidioides lutzii Pb01 Isocitrate Lyase by the Natural Compound Argentilactone and Its Semi-Synthetic Derivatives” (PLoS ONE, 2014)
≈ marks a conversion by molar mass, not a printed value. Where two headings read alike, the source gives them in different places.

Key:
[1] = test system: P. lutzii Pb01 yeast cells; assay: Inhibition and sensitivity assay, P. lutzii Pb01 yeast cells growth (broth macro dilution / spot on MMcM agar); format: cell-based, Paracoccidioides lutzii; settings: for MIC: read-out: minimal inhibitory concentration; for effect on P. lutzii Pb01 yeast cells growth: glucose or acetate as carbon source, 9 to 72 µg/mL
Procedure: Inhibition assays were performed by broth macro dilution method according to NCCLS M27-A2 guidelines with modifications. For the inhibition assays, yeast cells in their exponential growth phase were kept on solid MMcM for seven days at 36°C and inoculated in liquid MMcM medium. Sterile stock solution of the argentilactone, reduced argentilactone, epoxy argentilactone and diol argentilactone were freshly prepared in water and dimethyl sulfoxide (DMSO). Serial dilutions from stock solutions were prepared with sterile MMcM medium as the diluent, to yield final compound concentrations ranging from 9 to 72 µg/mL. Drug-free controls were included. Inocula concentrations were determined spectrophotometrically at 520 nm. The mixture was vortexed to disperse the aggregated cells. P. lutzii Pb01 was grown at 36°C, 200 rpm shaking for 10 days. For the sensitivity assay, 7-day-old P. lutzii Pb01 yeast cells were grown in liquid MMcM overnight at 36°C. Samples containing 10^5, 10^4, and 10^3 cells were spotted onto MMcM agar medium supplemented with argentilactone, reduced argentilactone, epoxy argentilactone, or diol argentilactone at concentrations of 9 µg/mL, 18 µg/mL, 36 µg/mL, or 72 µg/mL. […] The plates were incubated for 6 days at 36°C before being photographed.

[2] = test system: P. lutzii Pb01 differentiation from mycelium to yeast; assay: Transition from mycelium to yeast (dimorphism); format: cell-based, Paracoccidioides lutzii; settings: glucose or acetate; 10 days at 36°C
Procedure: The differentiation from mycelium to yeast was performed in Mc Veigh and Morton (MMcM) liquid minimal medium containing glucose (0.11 M) or acetate (0.28 M) as the carbon source. The cultivation temperature was changed from 23°C to 36°C to allow the mycelium to yeast transition. The cells were previously grown in liquid medium for 18 h before changing the incubation temperature, which was maintained for 10 days. The appearance of yeast cells was monitored using a Neubauer chamber.

PbICLc = PbICLc (Paracoccidioides lutzii, UniProt C1H8F5); assay: Enzymatic activity of native PbICL in crude protein extract of yeast cells (PbICLc); format: biochemical; settings: for inhibition of native PbICL activity: crude extract of yeast cells; for Specific activity PbICLc Acetate: crude extract of yeast cells grown on acetate, control 0.080±0.004; for Specific activity PbICLc Acetate / Specific activity PbICLc Glucose / IC50 / IC50 PbICLc Acetate / IC50 PbICLc Glucose: N.I. = No inhibition found; for Specific activity PbICLc Glucose: crude extract of yeast cells grown on glucose, control 0.010±0.002; for IC50 / IC50 PbICLc Acetate / IC50 PbICLc Glucose: crude extract
Procedure: P. lutzii Pb01 yeast cells grown for 24 h in liquid minimal MMcM medium containing glucose or acetate as the carbon source were centrifuged for 5 min at 2.500×g. The proteins were extracted as previously described. The cells were washed with sterilized water and frozen in liquid nitrogen. The material was ground to a fine powder; resuspended in 500 µL of 50 mM potassium phosphate buffer (pH 7.0) supplemented with 1 mM dithiothreitol (DTT) and vigorously mixed with glass beads for 20 min at 4°C. The cell debris was removed by centrifugation for 15 min at 4°C and 5,000×g, and the supernatant was centrifuged for 15 min at 4°C and 12,000×g. The cell-free extract was used for the ICL activity assays or stored at −20°C for further analyses. Quantification of the protein content was performed according to Bradford.
(§1) ICL activity was determined according to Cruz et al.. Reactions were performed in 1 mL assay volume containing 2 mM threo-D,L-isocitrate (effective concentration of threo-D-isocitrate 1 mM), 2 mM MgCl2, 10 mM phenylhydrazine HCl, 2 mM dithiothreitol, and 50 mM Tris HCl buffer (pH 7.0). The product glyoxylate-phenylhydrazone was followed at 324 nm using an extinction coefficient of 16.8 mM^−1.cm^−1. One unit of enzyme activity was defined as the formation of 1 µmol of glyoxylate-phenylhydrazone per minute using threo-D,L-isocitrate as the substrate. The specific activities were given as U.mg^−1 protein.
(§2) The compound concentrations were 10 µM, 20 µM, 30 µM, and 40 µM for recombinant PbICL and 30 µM, 40 µM, 50 µM, 60 µM, 70 µM, 80 µM and 90 µM for native PbICL. 3-nitropropinate (50.7 µM) was used as positive control. To the assays of specific activity of PbICL from mycelium, transition, and yeast, the cells were cultured for 10 days on 23°C and 36°C, and were used 18 µg/mL of argentilactone.

PbICLr = PbICLr (Paracoccidioides lutzii, UniProt C1H8F5); assay: Enzymatic activity of recombinant isocitrate lyase (PbICLr); format: biochemical; settings: for Specific activity PbICLr: control 2.55±0.02
Procedure: Recombinant PbICL protein was obtained as described by Cruz. Briefly, Pbicl cDNA was inserted into the pET-32a (+) expression vector (Novagen, Inc,). The resulting plasmid was transformed into E. coli BL21 C43 (DE3) cells, and expression was induced at an A600 of 0.6 by the addition of 1 mm (final concentration) isopropyl thio-β-D-galactoside (IPTG) (Sigma-Aldrich). After induction, the cells were incubated for another 2 h at 36°C with shaking at 200 rpm. The cells were harvested by centrifugation at 10,000×g for 5 min at 4°C and resuspended in 1 × NaCl/Pi buffer. After incubation for 30 min with 100 µg/mL lysozyme, the cells were lysed by extensive sonication. The sample was centrifuged at 4°C and 8,000×g for 15 min, and the supernatant, which contained the soluble protein fraction, was collected. His-tagged ICL was purified using the Ni-NTA Spin Kit (Qiagen), and the tags were subsequently removed by the addition of EKMax™ enterokinase (Invitrogen).
as §1, §2

[3] = test system: P. lutzii Pb01 yeast cells; assay: Viability assay of P. lutzii Pb01 yeast cells (Neubauer chamber); format: cell-based, Paracoccidioides lutzii; settings: 18 µg/mL, after 6 h of incubation
Procedure: P. lutzii Pb01 yeast cells were sub-cultured every 7 days in solid Fava-Netto’s medium at 36°C. For viability experiments, yeast cells were kept in liquid McVeigh Morton (MMcM) chemically defined medium for 6 h at 36°C and viability of the cells determined by counting viable cells in a Neubauer chamber. All experiments were performed in triplicate.

dermatophytes = test system: dermatophytes; parameters: method as in doi:10.1590/S0103-50532004000500023; settings: cited from earlier work
MRC5 cells = assay: Toxicity to MRC5 cells; format: cell-based; settings: 18 µg/mL; data not shown
PbICL = PbICL activity from phases of P. lutzii Pb01 cultured with argentilactone; format: biochemical, Paracoccidioides lutzii; settings: for PbICL specific activity: treated with 18 µg/mL; for inhibition of PbICL: 18 µg/mL, over the phases
Procedure: as §1, §2

[4] = read-out: IC50 PbICLc Acetate, acetate
[5] = read-out: IC50 PbICLc Glucose, glucose
[6] = recombinant enzyme, N.I. = No inhibition found

Sequence of PbICLc (C1H8F5 entry or part of it): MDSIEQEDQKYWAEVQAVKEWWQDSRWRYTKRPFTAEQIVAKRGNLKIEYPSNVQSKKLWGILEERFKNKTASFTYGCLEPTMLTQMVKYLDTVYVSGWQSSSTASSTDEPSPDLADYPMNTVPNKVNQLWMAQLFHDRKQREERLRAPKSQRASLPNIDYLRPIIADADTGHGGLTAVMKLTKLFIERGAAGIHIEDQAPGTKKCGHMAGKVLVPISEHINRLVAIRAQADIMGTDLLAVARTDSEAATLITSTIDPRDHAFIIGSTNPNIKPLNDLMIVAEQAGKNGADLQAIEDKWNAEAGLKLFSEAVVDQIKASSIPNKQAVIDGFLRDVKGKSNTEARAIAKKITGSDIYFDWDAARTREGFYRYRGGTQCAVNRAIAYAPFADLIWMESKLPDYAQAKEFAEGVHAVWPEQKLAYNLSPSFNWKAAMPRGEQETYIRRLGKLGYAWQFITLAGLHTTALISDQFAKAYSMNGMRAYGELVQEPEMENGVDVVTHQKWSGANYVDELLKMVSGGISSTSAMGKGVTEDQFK
Sequence of PbICLr (C1H8F5 entry or part of it): as above

| Compound | MIC ([1]; acetate as carbon source) [µg/mL] | MIC ([1]; glucose as carbon source) [µg/mL] | effect on P. lutzii Pb01 yeast cells growth [1] | inhibition of the dimorphism mycelium to yeast [2] | inhibition of native PbICL activity (PbICLc) | Specific activity PbICLc Acetate (PbICLc) | Specific activity PbICLc Glucose (PbICLc) | IC50 (PbICLc; [4]) [µM] | IC50 (PbICLc; [5]) [µM] | IC50 (PbICLr) [µM] | Specific activity PbICLr (PbICLr; [6]) | IC50 PbICLc Acetate (PbICLc; acetate) | IC50 PbICLc Glucose (PbICLc; glucose) | effect against PbICLr (PbICLr; recombinant enzyme) | IC50 PbICLr (PbICLr; [6]) | also measured |
| --- | --- | --- | --- | --- | --- | --- | --- | --- | --- | --- | --- | --- | --- | --- | --- | --- |
| CCCCCCCC1CC=CC(=O)O1 (stereo in doubt) [Reduced argentilactone, 2H-Pyran-2-one, 6-heptyl-5,6-dihydro-, (6R)] | 9 (≈ 45.9 µM) | 18 (≈ 91.7 µM) | dose-dependent inhibition | the effect was reduced | inhibited | 0.067±0.004 U/mg | 0.009±0.003 U/mg | 60 ± 0.02 | 85 ± 0.01 | 30.2 ± 0.04 | 0.93±0.01 U/mg | – | – | – | – | – |
| O=C(O)CC[N+](=O)[O-] [3-Nitropropionate, reference compound] | – | – | – | – | – | 0.036±0.002 U/mg | 0.008±0.001 U/mg | – | – | – | 0.81±0.01 U/mg | – | – | – | – | IC50 (PbICLc; acetate, read-out: IC50 PbICLc Acetate): 45.4 ± 0.01 µM; IC50 (PbICLc; glucose, read-out: IC50 PbICLc Glucose): 76 ± 0.01 µM; IC50 (PbICLr; recombinant enzyme, N.I. = No inhibition found, read-out: IC50 PbICLr): 25.7 ± 0.01 µM |
| CCCCC/C=C\[C@H]1CC=CC(=O)O1 [Argentilactone, 2H-Pyran-2-one, 6-(1-heptenyl)-5,6-dihydro-, [R-(Z)]] | 9 (≈ 46.3 µM) | 18 (≈ 92.7 µM) | dose-dependent inhibition | dose-dependent inhibition | inhibited | 0.040±0.001 U/mg | – | 50 ± 0.03 | 80 ± 0.02 | 28.8 ± 0.01 | 0.86±0.01 U/mg | – | – | – | – | decrease of viability [3]: approximately 15%; minimal inhibitory concentration (dermatophytes): 31 µg/mL (≈ 160 µM); toxicity to MRC5 cells (MRC5 cells): not toxic; PbICL specific activity (PbICL; Mycelium to Yeast, Acetate): 0.055±0.003 U; PbICL specific activity (PbICL; Mycelium to Yeast, Glucose): 0.055±0.001 U; PbICL specific activity (PbICL; Mycelium, Acetate): 0.055±0.005 U; PbICL specific activity (PbICL; Mycelium, Glucose): T 0.045±0.001 U; PbICL specific activity (PbICL; Yeast, Acetate): 0.120±0.003 U; PbICL specific activity (PbICL; Yeast, Glucose): 0.085±0.001 U; inhibition of PbICL (PbICL; acetate): ~45%; inhibition of PbICL (PbICL; glucose): ~30% |
| CCCCC[C@@H](O)[C@H](O)[C@H]1CC=CC(=O)O1 [Diol argentilactone, 2H-Pyran-2-one, 6-(1,2-dihydroxyheptyl)-5,6-dihydro-, [6R-(1S, 2R)]] | – | – | very small effect | did not interfere | No inhibition | N.I. ^** | N.I. ^** | – | – | – | N.I. ^** | N.I. ^** | N.I. ^** | no effect | N.I. ^** | – |
| CCCCCC1OC1C1CC=CC(=O)O1 [Epoxi argentilactone, 2H-Pyran-2-one, 5,6-dihydro-6-[(2S, 3S)-3-pentyl-2-oxiranyl] -, (6R)] | – | – | very small effect | did not interfere | No inhibition | N.I. ^** | N.I. ^** | – | – | – | N.I. ^** | N.I. ^** | N.I. ^** | no effect | N.I. ^** | – |
